Measurements published in patent US11653650B2, “Fungicide composition and method for controlling disease of crop” (ISHIHARA SANGYO KAISHA, LTD., priority 2017, dated 2023).
Read-outs that look alike come from different tables or passages of the source.

Key:
[1] = system: Apple anthracnose (apple bitter rot) fungus, Colletotrichum gloeosporioides; assay: Inhibitory effect test for hyphal elongation on PDA, 20° C., 2 days; format: cell-based; details: read-out: Inhibition rate (%)
Procedure: (§1) Test Example 4: Inhibitory Effect Test for Hyphal Elongation (Apple Anthracnose (Apple Bitter Rot) Fungus, Colletotrichum gloeosporioides) A fungal flora (diameter: 4 mm) obtained by pre-cultivation was transplanted on PDA containing a given concentration of a chemical and then cultured at room temperature of 20° C. for 2 days, followed by measuring the diameter of the grown flora in the same manner as described in Test Example 3 to determine the hyphal elongation inhibition rate. In addition, theoretical values (of the hyphal elongation inhibition rate) were calculated according to the Colby's calculation formula based on the above determined hyphal elongation inhibition rate, and presented in parenthesis in the table.

[2] = system: Apple anthracnose (apple bitter rot) fungus, Colletotrichum acutatum; assay: as above; format: cell-based; details: read-out: Inhibition rate (%)
Procedure: as §1, with “Test Example 5: Inhibitory Effect” for “Test Example 4: Inhibitory Effect”, “Fungus, Colletotrichum acutatum) A fungal” for “Fungus, Colletotrichum gloeosporioides) A fungal”, “the hyphal elongation, inhibition rate.” for “the hyphal elongation inhibition rate.”

[3] = system: pear scab (Japanese pear scab); assay: Effect test against pear scab (Japanese pear scab), effect on leaves, sprayed adult pear trees; format: in vivo, pear (cultivar: Housui); details: sprayed four times
Procedure: Test Example 1: Effect Test Against Pear Scab (Japanese Pear Scab) (Effect on Leaves) A given amount of a chemical was sprayed on adult trees of pear (cultivar: Housui) with a pressurized sprayer in an amount sufficient to drip from the leaves. The spraying was performed four times in total at intervals of 8 to 10 days, about 50 leaves per area were investigated about the presence or absence of the onset of the disease days after the final spraying, and the ratio of the leaves with the onset of the disease and the disease control value were calculated (in triplicate). In addition, the theoretical value (of the disease control value) by mixing was also calculated according to the Colby's formula. Disease control value=(1−a/b)×100 wherein a: Mean ratio of leaves with the onset of the disease in the treated area, b: Mean ratio of leaves with the onset of the disease in the untreated area; Colby's formula=(X+Y)−XY/100 wherein X: Disease control value when using isofetamid alone, Y: Disease control value when using mandestrobin alone. When the actually measured value is higher than the theoretical value, the fungicide composition of the present invention has a synergistic effect on pear scab (Japanese pear scab).

[4] = system: Pear scab (Japanese pear scab) fungus, Venturia nashicola; assay: Inhibitory effect test for hyphal elongation on PDA, 20° C., 25 days; format: cell-based; details: read-out: Inhibition rate (%)
Procedure: Test Example 3: Inhibitory Effect Test for Hyphal Elongation (Pear Scab (Japanese Pear Scab) Fungus, Venturia nashicola) A fungal flora (diameter: 4 mm) obtained by pre-cultivation was transplanted on PDA (potato dextrose agar medium) containing a given concentration of a chemical and then cultured at room temperature of 20° C. for 25 days, followed by measuring the diameter (mm) of the grown flora to determine the hyphal elongation inhibition rate. In addition, theoretical values (of the hyphal elongation inhibition rate) were calculated according to the Colby's calculation formula based on the above determined hyphal elongation inhibition rate, and presented in parenthesis in the table. Inhibition rate=(1−a/b)×100 wherein a: “Mean diameter (mm) of flora in the treated area”—4, b: “Mean diameter (mm) of flora in the untreated area”—4 Colby's formula=(X+Y)−XY/100 X: Inhibition rate when using isofetamid alone Y: Inhibition rate when using mandestrobin alone. When the experimental value is higher than the theoretical value, the fungicide composition of the present invention has a synergistic effect on pear scab (Japanese pear scab) fungus.

[5] = system: pear scab (Japanese pear scab); assay: Effect test against pear scab (Japanese pear scab), effect on fruits, sprayed adult pear trees; format: in vivo, pear (cultivar: Housui); details: 8 days after the final spraying
Procedure: Test Example 2: Effect Test Against Pear Scab (Japanese Pear Scab) (Effect on Fruits) A given amount of a chemical was sprayed on adult trees of pear (cultivar: Housui) with a pressurized sprayer in an amount sufficient to drip from the leaves and fruits. The spraying was performed four times in total at intervals of 6 to 11 days, about 50 fruits per area were investigated about the presence or absence of the onset of the disease 8 days after the final spraying, and the ratio of the fruits with the onset of the disease and the disease control value were calculated (in triplicate). In addition, the theoretical value (of the disease control value) by mixing was also calculated according to the Colby's formula. Disease control value=(1−a/b)×100 wherein a: Mean ratio of fruits with the onset of the disease in the treated area, b: Mean ratio of fruits with the onset of the disease in the untreated area.

[6] = Mandestrobin 0.01 ppm alone (Isofetamid 0 ppm)
[7] = Mandestrobin 0.1 ppm alone (Isofetamid 0 ppm)
[8] = Mandestrobin 1 ppm alone (Isofetamid 0 ppm)
[9] = Mandestrobin 10 ppm alone (Isofetamid 0 ppm)
[10] = Isofetamid 0.01 ppm alone (Mandestrobin 0 ppm)
[11] = Isofetamid 0.1 ppm alone (Mandestrobin 0 ppm)
[12] = Isofetamid 1 ppm alone (Mandestrobin 0 ppm)
[13] = Isofetamid 10 ppm alone (Mandestrobin 0 ppm)

SMILES: CNC(=O)C(OC)c1ccccc1COc1cc(C)ccc1C (racemic) [Mandestrobin, (RS)-2-methoxy-N-methyl-2-[α-(2,5-xylyloxy)-o-tolyl]acetamide]
- inhibition at 0.01 ppm [1, 6]: 1.9%
- inhibition at 0.1 ppm [1, 7]: 3.8%
- inhibition at 1 ppm [1, 8]: 14.1%
- inhibition at 10 ppm [1, 9]: 33.3%
- inhibition at 0.01 ppm [2, 6]: 0%
- inhibition at 0.1 ppm [2, 7]: 0%
- inhibition at 1 ppm [2, 8]: 42.6%
- inhibition at 10 ppm [2, 9]: 55.4%
- Disease control value ([3]; Mandestrobin 70 ppm): 65.9
- Ratio of leaves with onset of disease (%) ([3]; Mandestrobin 70 ppm): 31.7%
- Disease control value ([3]; Mandestrobin 140 ppm): 74.9
- Ratio of leaves with onset of disease (%) ([3]; Mandestrobin 140 ppm): 23.3%
- inhibition at 0.01 ppm [4, 6]: 0%
- inhibition at 0.1 ppm [4, 7]: 12.8%
- inhibition at 1 ppm [4, 8]: 27.7%
- inhibition at 10 ppm [4, 9]: 44.7%
- Disease control value ([5]; Mandestrobin 70 ppm): 77.5
- Ratio of fruits with onset of disease (%) ([5]; Mandestrobin 70 ppm): 10.3%
- Disease control value ([5]; Mandestrobin 100 ppm): 90.1
- Ratio of fruits with onset of disease (%) ([5]; Mandestrobin 100 ppm): 4.5%
- Disease control value ([5]; Mandestrobin 140 ppm): 93.4
- Ratio of fruits with onset of disease (%) ([5]; Mandestrobin 140 ppm): 3.0%

SMILES: Cc1cc(OC(C)C)ccc1C(=O)C(C)(C)NC(=O)c1sccc1C [Isofetamid, N-[1,1-dimethyl-2-(4-isopropoxy-o-tolyl)-2-oxoethyl]-3-methylthiophene-2-carboxamide]
- inhibition at 0.01 ppm [1, 10]: 0%
- inhibition at 0.1 ppm [1, 11]: 0%
- inhibition at 1 ppm [1, 12]: 0%
- inhibition at 10 ppm [1, 13]: 2.6%
- inhibition at 0.01 ppm [2, 10]: 6.9%
- inhibition at 0.1 ppm [2, 11]: 3%
- inhibition at 1 ppm [2, 12]: 0%
- inhibition at 10 ppm [2, 13]: 24.8%
- Disease control value ([3]; Isofetamid 90 ppm): 66.3
- Ratio of leaves with onset of disease (%) ([3]; Isofetamid 90 ppm): 31.3%
- Disease control value ([3]; Isofetamid 190 ppm): 56.4
- Ratio of leaves with onset of disease (%) ([3]; Isofetamid 190 ppm): 40.5%
- inhibition at 0.01 ppm [4, 10]: 0%
- inhibition at 0.1 ppm [4, 11]: 8.5%
- inhibition at 1 ppm [4, 12]: 49.6%
- inhibition at 10 ppm [4, 13]: 100%
- Disease control value ([5]; Isofetamid 93 ppm): 83.4
- Ratio of fruits with onset of disease (%) ([5]; Isofetamid 93 ppm): 7.6%
- Disease control value ([5]; Isofetamid 134 ppm): 77.5
- Ratio of fruits with onset of disease (%) ([5]; Isofetamid 134 ppm): 10.3%
- Disease control value ([5]; Isofetamid 187 ppm): 62.3
- Ratio of fruits with onset of disease (%) ([5]; Isofetamid 187 ppm): 17.2%
